The values below come from ChEMBL document CHEMBL1125222, “Activity of N6-substituted 2-chloroadenosines at A1 and A2 adenosine receptors” (J Med Chem, 1991).

A short description of test [1]: Effective concentration against A2AR mediated P12 adenylatencyclase activity. The format is functional, Rattus norvegicus.
Test [2] concerns the target T1, Adenosine receptor A1 (Rattus norvegicus, UniProt P25099).
T1 sequence (P25099 whole entry): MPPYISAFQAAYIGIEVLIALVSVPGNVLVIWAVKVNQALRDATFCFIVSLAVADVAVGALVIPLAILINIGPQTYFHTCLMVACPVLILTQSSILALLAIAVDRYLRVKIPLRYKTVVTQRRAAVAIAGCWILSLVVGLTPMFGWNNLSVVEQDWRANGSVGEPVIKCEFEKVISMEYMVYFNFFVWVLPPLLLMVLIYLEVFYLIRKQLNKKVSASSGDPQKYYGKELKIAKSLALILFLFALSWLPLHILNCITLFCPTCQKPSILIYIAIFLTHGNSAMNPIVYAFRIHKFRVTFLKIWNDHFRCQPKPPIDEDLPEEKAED
The test can be described thus: Inhibition of [3H]- (R)-P1A binding to adenosine A1 receptor.

The nature of test [3]: Concentration required to increase Adenosine A2A receptor mediated P12 Adenylate cyclase activity. The format is functional, Rattus norvegicus.
Test [4] has as its target T1, Adenosine receptor A1.
Another test deals with Adenosine A2 receptor (Rattus norvegicus, UniProt P29276+P30543). The experiment in a line: Inhibition of [3H]- NECA binding to adenosine receptor A2. Format: protein assay.

On to `C[C@H](Cc1ccccc1)Nc1ncnc2c1ncn2[C@@H]1O[C@H](CO)[C@@H](O)[C@H]1O` [(R)-PIA], for which the EC50 in test [1] is 980 nM.

`Nc1nc(Cl)nc2c1ncn2[C@@H]1O[C@H](CO)[C@@H](O)[C@H]1O`: at Adenosine receptor A1 [2], the Ki was determined as 6.7 nM. Further, in test [3], the midpoint of the response, the EC50, lay at 460 nM.

For the molecule `C[C@@H](Cc1ccccc1)Nc1nc(Cl)nc2c1ncn2[C@@H]1O[C@H](CO)[C@@H](O)[C@H]1O`, the Ki at Adenosine receptor A1 [4] was determined as 20 nM; at Adenosine A2 receptor it was 3000 nM. For the same molecule, the EC50 in test [1] is 3000 nM.

Regarding `OC[C@H]1OC(n2cnc3c(Nc4ccccc4)nc(Cl)nc32)[C@H](O)[C@@H]1O` (stereo not given in full), the figures for the Ki at Adenosine receptor A1 [4] and at Adenosine A2 receptor were 7.6 nM and 1700 nM, respectively. Further, the response in test [1] was half-maximal at 1600 nM (EC50).

Consider `C[C@H](Cc1ccccc1)Nc1nc(Cl)nc2c1ncn2[C@@H]1O[C@H](CO)[C@@H](O)[C@H]1O`, for which the Ki at Adenosine receptor A1 [4] is 1.4 nM; on Adenosine A2 receptor, 220 nM. Besides, in test [1], the EC50 was 320 nM.

In the case of `OC[C@H]1O[C@@H](n2cnc3c(NC4CCCC4)nc(Cl)nc32)[C@H](O)[C@@H]1O`, the response in test [1] was half-maximal at 730 nM (EC50).

Take `OC[C@H]1O[C@@H](n2cnc3c(Nc4ccccc4)ncnc32)[C@H](O)[C@@H]1O` [N6-PHENYLADENOSINE]: the Ki came to 16 nM at Adenosine receptor A1 [4] and 1200 nM on Adenosine A2 receptor. Also, in test [1], the response was half-maximal at 3100 nM (EC50).

Turning to `Nc1ncnc2c1ncn2[C@@H]1O[C@H](CO)[C@@H](O)[C@H]1O` [ADENOSINE], the EC50 in test [3] was determined as 150 nM.

Turning to `C[C@@H](Cc1ccccc1)Nc1ncnc2c1ncn2[C@@H]1O[C@H](CO)[C@@H](O)[C@H]1O` [(S)-PIA], the midpoint of the response in test [3], the EC50, lay at 4200 nM.

The molecule `OC[C@H]1O[C@@H](n2cnc3c(NC4CCCC4)ncnc32)[C@H](O)[C@@H]1O` [N6-CYCLOPENTYLADENOSINE] returned an inhibition constant Ki on Adenosine A2 receptor of 510 nM. In test [1], this molecule showed an EC50 of 3200 nM.

A word on the EC50: it is the concentration needed to bring the measured effect to its halfway point. Low readings indicate higher potency in that assay, high ones lower potency in that assay. What is called Ki is the equilibrium dissociation constant of an inhibitor or competing ligand from its target.
